# How the values were obtained:
# Type in all cases: in vivo
# [1] = test system: Italian ryegrass (Lolium multiflorum); test: Test A preemergence, visual injury rating; settings: Lolium multiflorum, pre-emergence, 240 h, 0 to 100 scale (0 no effect, 100 complete control), read-out: Ryegrass, Italian plant response rating
# Method in brief: (§1)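 Injury scores run from 0, no effect, to 100, complete control, judged by eye against untreated plants roughly 10 days after treatment. Chemicals carried a surfactant in a non-phytotoxic solvent and went onto loam–sand soil preemergence or onto one- to two-leaf seedlings postemergence.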
# kochia (Kochia scoparia) [2] = test: Test A preemergence, visual injury rating; settings: Bassia scoparia, pre-emergence, 240 h, 0 to 100 scale (0 no effect, 100 complete control), read-out: Kochia plant response rating
# Method in brief: as §1
# [3] = test system: barnyardgrass (Echinochloa crus-galli); test: Test A preemergence, visual injury rating; settings: Echinochloa crus-galli, pre-emergence, 240 h, 0 to 100 scale (0 no effect, 100 complete control), read-out: Barnyardgrass plant response rating
# Method in brief: as §1
# [4] = test system: giant foxtail (Setaria faberii); test: Test A preemergence, visual injury rating; settings: Setaria faberi, pre-emergence, 240 h, 0 to 100 scale (0 no effect, 100 complete control), read-out: Foxtail, Giant plant response rating
# Method in brief: as §1
# [5] = test system: pigweed (Amaranthus retroflexus); test: Test A preemergence, visual injury rating; settings: Amaranthus retroflexus, pre-emergence, 240 h, 0 to 100 scale (0 no effect, 100 complete control), read-out: Pigweed plant response rating
# Method in brief: as §1
# [6] = test system: ragweed (common ragweed, Ambrosia elatior); test: Test A preemergence, visual injury rating; settings: Ambrosia artemisiifolia, pre-emergence, 240 h, 0 to 100 scale (0 no effect, 100 complete control), read-out: Ragweed plant response rating
# Method in brief: as §1
# [7] = test system: crabgrass, large (large crabgrass, Digitaria sanguinalis); test: Test C postemergence, plant response rating; settings: Digitaria sanguinalis, post-emergence
# Method in brief: (§2)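 Greenhouse plants rated visually against untreated controls 13–15 d after treatment, scale 0 = no effect to 100 = complete control. Postemergence sprays went onto potted plants 2–18 cm tall (1–4 leaves); preemergence sprays onto soil freshly sown in loam–sand or silt loam, chemicals formulated in non-phytotoxic solvent with surfactant.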
# soybean (Glycine max) = test: Test C postemergence, plant response rating; settings: Glycine max, post-emergence
# Method in brief: as §2
# corn (Zea mays) = test: Test C postemergence, plant response rating; settings: Zea mays, post-emergence
# Method in brief: as §2
# [8] = test system: ryegrass, Italian (Italian ryegrass, Lolium multiflorum); test: Test C postemergence, plant response rating; settings: Lolium multiflorum, post-emergence
# Method in brief: as §2
# kochia (Kochia scoparia) [9] = test: Test C postemergence, plant response rating; settings: Bassia scoparia, post-emergence
# Method in brief: as §2
# [10] = test system: lambsquarters (Chenopodium album); test: Test C postemergence, plant response rating; settings: Chenopodium album, post-emergence
# Method in brief: as §2
# [11] = test system: waterhemp (common waterhemp, Amaranthus rudis); test: Test C postemergence, plant response rating; settings: for Plant response rating, Waterhemp: scale 0 to 100; for Waterhemp plant response rating: scale 0 to 100 (0 no effect, 100 complete control)
# Method in brief: as §2
# [12] = test system: chickweed (common chickweed, Stellaria media); test: Test C postemergence, plant response rating; settings: Stellaria media, post-emergence
# Method in brief: as §2
# [13] = test system: nutsedge, yellow (yellow nutsedge, Cyperus esculentus); test: Test C postemergence, plant response rating; settings: Cyperus, post-emergence
# Method in brief: as §2
# [14] = test system: oat, wild (wild oat Avena fatua); test: Test C postemergence, plant response rating; settings: Avena fatua, post-emergence
# Method in brief: as §2
# [15] = test system: ragweed (common ragweed, Ambrosia elatior); test: Test C postemergence, plant response rating; settings: Ambrosia artemisiifolia, post-emergence
# Method in brief: as §2
# [16] = test system: galium (catchweed bedstraw, Galium aparine); test: Test C postemergence, plant response rating; settings: Galium, post-emergence
# Method in brief: as §2
# [17] = 62 g ai/ha, scale 0 to 100 (0 no effect, 100 complete control)
# [18] = 125 g ai/ha, scale 0 to 100 (0 no effect, 100 complete control)
compound,measurement,setting,value
"O=C(OCCCC(F)(F)F)c1c(Br)cccc1Oc1ncc(Cl)cn1 [Compound 20, 4,4,4-trifluorobutyl 2-bromo-6-[(5-chloro-2-pyrimidinyl)oxy]benzoate]",pest or weed control at 125 g/ha,[1]; 125 g ai/ha,30%
same,pest or weed control at 500 g/ha,[1]; 500 g ai/ha,90%
same,pest or weed control at 125 g/ha,kochia (Kochia scoparia) [2]; 125 g ai/ha,30%
same,pest or weed control at 500 g/ha,kochia (Kochia scoparia) [2]; 500 g ai/ha,100%
same,pest or weed control at 125 g/ha,[3]; 125 g ai/ha,100%
same,pest or weed control at 500 g/ha,[3]; 500 g ai/ha,100%
same,pest or weed control at 125 g/ha,[4]; 125 g ai/ha,100%
same,pest or weed control at 500 g/ha,[4]; 500 g ai/ha,100%
same,pest or weed control at 125 g/ha,[5]; 125 g ai/ha,100%
same,pest or weed control at 500 g/ha,[5]; 500 g ai/ha,100%
same,pest or weed control at 125 g/ha,[6]; 125 g ai/ha,0%
same,pest or weed control at 500 g/ha,[6]; 500 g ai/ha,0%
same,pest or weed control at 16 g/ha,"[7]; 16 g ai/ha, scale 0 to 100",10%
same,pest or weed control at 31 g/ha,"[7]; 31 g ai/ha, scale 0 to 100",10%
same,pest or weed control at 62 g/ha,[7]; [17],15%
same,pest or weed control at 125 g/ha,[7]; [18],15%
same,plant injury at 16 g/ha,"soybean (Glycine max); 16 g ai/ha, scale 0 to 100",25%
same,plant injury at 31 g/ha,"soybean (Glycine max); 31 g ai/ha, scale 0 to 100",65%
same,plant injury at 62 g/ha,soybean (Glycine max); [17],55%
same,plant injury at 125 g/ha,soybean (Glycine max); [18],60%
same,"Corn plant response rating (crop injury, 0 = no effect, 100 = complete kill) at 16 g/ha","corn (Zea mays); 16 g ai/ha, scale 0 to 100",5%
same,"Corn plant response rating (crop injury, 0 = no effect, 100 = complete kill) at 31 g/ha","corn (Zea mays); 31 g ai/ha, scale 0 to 100",10%
same,plant injury at 62 g/ha,corn (Zea mays); [17],10%
same,plant injury at 125 g/ha,corn (Zea mays); [18],20%
same,pest or weed control at 16 g/ha,"[8]; 16 g ai/ha, scale 0 to 100",0%
same,pest or weed control at 31 g/ha,"[8]; 31 g ai/ha, scale 0 to 100",5%
same,pest or weed control at 62 g/ha,[8]; [17],10%
same,pest or weed control at 125 g/ha,[8]; [18],5%
same,pest or weed control at 16 g/ha,"kochia (Kochia scoparia) [9]; 16 g ai/ha, scale 0 to 100",95%
same,pest or weed control at 31 g/ha,"kochia (Kochia scoparia) [9]; 31 g ai/ha, scale 0 to 100",95%
same,pest or weed control at 62 g/ha,kochia (Kochia scoparia) [9]; [17],100%
same,pest or weed control at 125 g/ha,kochia (Kochia scoparia) [9]; [18],100%
same,pest or weed control at 16 g/ha,"[10]; 16 g ai/ha, scale 0 to 100",65%
same,pest or weed control at 31 g/ha,"[10]; 31 g ai/ha, scale 0 to 100",80%
same,pest or weed control at 62 g/ha,[10]; [17],70%
same,pest or weed control at 125 g/ha,[10]; [18],85%
same,"Plant response rating, Waterhemp",[11]; 16 g ai/ha,75
same,"Plant response rating, Waterhemp",[11]; 31 g ai/ha,95
same,Waterhemp plant response rating,[11]; 62 g ai/ha,90
same,Waterhemp plant response rating,[11]; 125 g ai/ha,98
same,pest or weed control at 16 g/ha,"[12]; 16 g ai/ha, scale 0 to 100",60%
same,pest or weed control at 31 g/ha,"[12]; 31 g ai/ha, scale 0 to 100",60%
same,pest or weed control at 62 g/ha,[12]; [17],65%
same,pest or weed control at 125 g/ha,[12]; [18],75%
same,pest or weed control at 16 g/ha,"[13]; 16 g ai/ha, scale 0 to 100",0%
same,pest or weed control at 31 g/ha,"[13]; 31 g ai/ha, scale 0 to 100",5%
same,pest or weed control at 62 g/ha,[13]; [17],5%
same,pest or weed control at 125 g/ha,[13]; [18],10%
same,pest or weed control at 16 g/ha,"[14]; 16 g ai/ha, scale 0 to 100",0%
same,pest or weed control at 31 g/ha,"[14]; 31 g ai/ha, scale 0 to 100",0%
same,pest or weed control at 62 g/ha,[14]; [17],5%
same,pest or weed control at 125 g/ha,[14]; [18],5%
same,pest or weed control at 16 g/ha,"[15]; 16 g ai/ha, scale 0 to 100",30%
same,pest or weed control at 31 g/ha,"[15]; 31 g ai/ha, scale 0 to 100",50%
same,pest or weed control at 62 g/ha,[15]; [17],55%
same,pest or weed control at 125 g/ha,[15]; [18],60%
same,pest or weed control at 16 g/ha,"[16]; 16 g ai/ha, scale 0 to 100",70%
same,pest or weed control at 31 g/ha,"[16]; 31 g ai/ha, scale 0 to 100",60%
same,pest or weed control at 62 g/ha,[16]; [17],80%
same,pest or weed control at 125 g/ha,[16]; [18],98%

# Reference: patent US11053204B2, “Pyrimidinyloxy benzene derivatives as herbicides” (FMC Corporation, priority 2015, dated 2021)
